Measured values as given in ChEMBL document CHEMBL5291721, “A preclinical secondary pharmacology resource illuminates target-adverse drug reaction associations of marketed drugs” (Nat Commun, 2023).

Legend:
[1] = target: T1, Endothelin-1 receptor (Homo sapiens, UniProt P25101)
T1 sequence (P25101 whole entry): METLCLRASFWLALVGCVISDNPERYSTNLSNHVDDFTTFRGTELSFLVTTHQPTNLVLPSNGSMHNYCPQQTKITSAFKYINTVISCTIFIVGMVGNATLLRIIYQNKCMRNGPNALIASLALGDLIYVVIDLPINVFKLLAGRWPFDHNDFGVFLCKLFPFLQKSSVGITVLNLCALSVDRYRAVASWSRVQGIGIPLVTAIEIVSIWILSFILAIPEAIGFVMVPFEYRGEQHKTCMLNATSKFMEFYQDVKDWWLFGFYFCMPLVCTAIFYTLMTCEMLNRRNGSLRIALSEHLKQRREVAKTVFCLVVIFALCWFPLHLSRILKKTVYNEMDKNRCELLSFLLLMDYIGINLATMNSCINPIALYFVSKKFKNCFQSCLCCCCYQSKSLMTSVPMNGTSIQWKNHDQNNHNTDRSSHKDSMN

[2] = target: cGMP-inhibited 3',5'-cyclic phosphodiesterase 3A (Homo sapiens, UniProt Q14432); format: functional
[3] = target: Voltage-gated inwardly rectifying potassium channel KCNH2 (Homo sapiens, UniProt Q12809); format: functional; details: read-out: AC50
Sequence of Voltage-gated inwardly rectifying potassium channel KCNH2 (Q12809 whole entry): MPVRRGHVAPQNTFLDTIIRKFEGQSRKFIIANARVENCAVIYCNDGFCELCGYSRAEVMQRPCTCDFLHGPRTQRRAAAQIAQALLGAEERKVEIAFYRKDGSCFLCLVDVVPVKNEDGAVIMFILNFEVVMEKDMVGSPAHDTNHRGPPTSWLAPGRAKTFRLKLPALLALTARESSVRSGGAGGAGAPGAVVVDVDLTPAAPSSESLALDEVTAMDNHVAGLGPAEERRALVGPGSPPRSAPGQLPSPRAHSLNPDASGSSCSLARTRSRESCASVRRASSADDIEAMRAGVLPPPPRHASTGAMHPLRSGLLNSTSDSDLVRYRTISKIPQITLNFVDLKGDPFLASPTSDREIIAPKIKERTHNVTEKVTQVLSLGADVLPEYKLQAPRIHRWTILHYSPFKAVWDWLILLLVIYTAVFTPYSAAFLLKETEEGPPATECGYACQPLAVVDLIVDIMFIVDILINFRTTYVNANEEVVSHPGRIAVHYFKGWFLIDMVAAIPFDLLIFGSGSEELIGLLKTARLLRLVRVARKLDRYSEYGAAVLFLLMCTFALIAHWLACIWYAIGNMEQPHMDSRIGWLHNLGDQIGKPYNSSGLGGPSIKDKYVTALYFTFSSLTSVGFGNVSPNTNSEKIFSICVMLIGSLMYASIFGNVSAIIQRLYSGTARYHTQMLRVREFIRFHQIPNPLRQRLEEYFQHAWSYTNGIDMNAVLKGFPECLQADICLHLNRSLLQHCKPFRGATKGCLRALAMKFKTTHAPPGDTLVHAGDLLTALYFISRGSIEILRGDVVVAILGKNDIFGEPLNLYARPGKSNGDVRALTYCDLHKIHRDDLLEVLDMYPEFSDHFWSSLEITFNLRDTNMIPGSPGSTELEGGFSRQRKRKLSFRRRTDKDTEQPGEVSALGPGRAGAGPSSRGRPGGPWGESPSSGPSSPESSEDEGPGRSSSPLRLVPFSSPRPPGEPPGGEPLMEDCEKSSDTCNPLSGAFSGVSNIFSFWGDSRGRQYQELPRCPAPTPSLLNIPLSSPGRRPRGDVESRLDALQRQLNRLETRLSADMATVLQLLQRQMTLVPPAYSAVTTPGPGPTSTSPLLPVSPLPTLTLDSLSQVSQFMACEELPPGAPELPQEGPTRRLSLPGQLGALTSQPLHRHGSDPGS

[4] = target: T2, Muscarinic acetylcholine receptor M2 (Homo sapiens, UniProt P08172); format: functional, cell-based
T2 sequence (P08172 whole entry): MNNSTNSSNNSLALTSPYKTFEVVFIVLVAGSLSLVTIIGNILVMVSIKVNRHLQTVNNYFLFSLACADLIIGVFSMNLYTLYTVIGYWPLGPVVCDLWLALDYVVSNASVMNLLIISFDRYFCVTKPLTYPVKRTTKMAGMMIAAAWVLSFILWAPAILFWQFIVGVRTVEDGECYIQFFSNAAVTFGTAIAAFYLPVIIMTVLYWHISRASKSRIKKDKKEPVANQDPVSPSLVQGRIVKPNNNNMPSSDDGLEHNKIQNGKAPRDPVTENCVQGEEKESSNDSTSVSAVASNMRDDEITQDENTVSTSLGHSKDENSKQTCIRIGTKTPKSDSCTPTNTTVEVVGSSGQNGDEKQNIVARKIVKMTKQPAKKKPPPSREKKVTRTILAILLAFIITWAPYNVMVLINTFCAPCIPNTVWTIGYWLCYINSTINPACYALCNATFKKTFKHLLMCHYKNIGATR

[5] = target: D(3) dopamine receptor (Homo sapiens, UniProt P35462)
Sequence of D(3) dopamine receptor (P35462 whole entry): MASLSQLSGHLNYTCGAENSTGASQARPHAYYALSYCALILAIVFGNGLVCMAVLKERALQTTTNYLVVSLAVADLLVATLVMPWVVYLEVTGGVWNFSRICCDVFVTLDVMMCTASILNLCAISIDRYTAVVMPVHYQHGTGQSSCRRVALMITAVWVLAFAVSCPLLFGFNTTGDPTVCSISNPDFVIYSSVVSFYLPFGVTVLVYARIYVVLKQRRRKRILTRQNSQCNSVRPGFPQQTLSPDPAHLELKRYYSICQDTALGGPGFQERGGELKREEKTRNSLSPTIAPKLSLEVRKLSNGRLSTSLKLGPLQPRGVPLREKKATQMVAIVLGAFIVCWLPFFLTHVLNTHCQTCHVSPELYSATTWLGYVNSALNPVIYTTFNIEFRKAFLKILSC

[6] = target: Beta-1 adrenergic receptor (Homo sapiens, UniProt P08588); format: functional
Sequence of Beta-1 adrenergic receptor (P08588 whole entry): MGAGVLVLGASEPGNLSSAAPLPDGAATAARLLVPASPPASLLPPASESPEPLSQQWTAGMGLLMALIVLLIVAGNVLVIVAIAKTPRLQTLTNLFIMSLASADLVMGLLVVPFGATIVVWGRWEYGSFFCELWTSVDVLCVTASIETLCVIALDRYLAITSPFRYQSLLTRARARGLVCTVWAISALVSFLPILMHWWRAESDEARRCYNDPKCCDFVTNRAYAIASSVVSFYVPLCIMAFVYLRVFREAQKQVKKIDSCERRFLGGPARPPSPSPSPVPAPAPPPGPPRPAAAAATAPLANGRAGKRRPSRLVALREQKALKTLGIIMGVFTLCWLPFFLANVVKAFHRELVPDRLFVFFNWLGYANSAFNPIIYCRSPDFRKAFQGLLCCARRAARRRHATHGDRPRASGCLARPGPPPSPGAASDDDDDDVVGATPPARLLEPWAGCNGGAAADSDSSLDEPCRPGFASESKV

[7] = target: Adenosine receptor A2a (Homo sapiens, UniProt P29274)
Sequence of Adenosine receptor A2a (P29274 whole entry): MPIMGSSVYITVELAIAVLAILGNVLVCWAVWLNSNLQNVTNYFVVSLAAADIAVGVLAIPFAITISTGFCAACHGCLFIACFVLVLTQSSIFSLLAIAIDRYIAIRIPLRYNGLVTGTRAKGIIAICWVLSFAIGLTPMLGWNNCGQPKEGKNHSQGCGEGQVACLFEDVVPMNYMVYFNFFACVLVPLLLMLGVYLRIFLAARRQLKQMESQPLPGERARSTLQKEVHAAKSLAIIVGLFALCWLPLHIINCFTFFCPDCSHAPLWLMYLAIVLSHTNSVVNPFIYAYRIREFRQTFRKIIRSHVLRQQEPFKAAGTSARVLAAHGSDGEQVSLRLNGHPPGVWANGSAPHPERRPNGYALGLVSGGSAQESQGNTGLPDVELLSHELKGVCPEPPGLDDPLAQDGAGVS

[8] = target: T3, Adenosine receptor A3 (Homo sapiens, UniProt P0DMS8)
T3 sequence (P0DMS8 whole entry): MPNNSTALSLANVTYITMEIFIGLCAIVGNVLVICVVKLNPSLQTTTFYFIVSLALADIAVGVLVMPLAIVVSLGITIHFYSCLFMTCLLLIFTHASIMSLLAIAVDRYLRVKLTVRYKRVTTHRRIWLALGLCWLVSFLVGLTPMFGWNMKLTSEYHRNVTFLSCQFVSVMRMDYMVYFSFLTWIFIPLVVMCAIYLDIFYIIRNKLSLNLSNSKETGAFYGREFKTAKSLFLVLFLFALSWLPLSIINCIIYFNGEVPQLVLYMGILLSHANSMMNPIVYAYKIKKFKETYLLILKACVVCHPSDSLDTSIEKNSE

[9] = target: Mu-type opioid receptor (Homo sapiens, UniProt P35372); test: biochemical; format: functional
[10] = target: T4, 5-hydroxytryptamine receptor 1A (Homo sapiens, UniProt P08908); format: functional, cell-based
T4 sequence (P08908 whole entry): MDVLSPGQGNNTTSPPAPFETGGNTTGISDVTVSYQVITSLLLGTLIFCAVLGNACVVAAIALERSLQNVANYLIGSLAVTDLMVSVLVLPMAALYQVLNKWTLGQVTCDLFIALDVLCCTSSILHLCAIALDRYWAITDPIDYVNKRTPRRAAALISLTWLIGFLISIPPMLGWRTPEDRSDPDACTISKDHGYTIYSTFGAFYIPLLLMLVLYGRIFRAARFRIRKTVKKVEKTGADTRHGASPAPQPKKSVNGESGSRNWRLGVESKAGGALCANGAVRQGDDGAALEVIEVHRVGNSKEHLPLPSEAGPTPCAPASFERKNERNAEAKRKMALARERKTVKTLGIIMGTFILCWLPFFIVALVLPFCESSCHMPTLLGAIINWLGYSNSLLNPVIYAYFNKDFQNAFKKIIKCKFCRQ

[11] = target: Sodium-dependent noradrenaline transporter (Homo sapiens, UniProt P23975)
Sequence of Sodium-dependent noradrenaline transporter (P23975 whole entry): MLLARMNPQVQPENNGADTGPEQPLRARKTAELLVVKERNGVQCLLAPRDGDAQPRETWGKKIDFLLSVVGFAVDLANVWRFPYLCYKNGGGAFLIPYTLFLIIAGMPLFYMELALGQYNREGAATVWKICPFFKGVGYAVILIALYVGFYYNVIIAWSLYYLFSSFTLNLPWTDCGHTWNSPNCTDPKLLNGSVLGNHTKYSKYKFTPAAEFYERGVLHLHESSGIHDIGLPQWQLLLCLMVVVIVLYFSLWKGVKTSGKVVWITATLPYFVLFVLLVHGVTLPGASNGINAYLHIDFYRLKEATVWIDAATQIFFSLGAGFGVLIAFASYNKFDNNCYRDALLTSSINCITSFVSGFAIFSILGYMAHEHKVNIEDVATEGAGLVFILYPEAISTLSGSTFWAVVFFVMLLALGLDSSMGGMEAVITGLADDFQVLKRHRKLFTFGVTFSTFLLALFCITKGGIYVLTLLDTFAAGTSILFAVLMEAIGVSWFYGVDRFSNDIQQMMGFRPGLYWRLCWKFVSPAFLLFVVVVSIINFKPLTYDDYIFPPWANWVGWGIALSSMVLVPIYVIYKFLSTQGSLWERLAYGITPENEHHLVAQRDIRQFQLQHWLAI

[12] = target: T5, Cholecystokinin receptor type A (Homo sapiens, UniProt P32238)
T5 sequence (P32238 whole entry): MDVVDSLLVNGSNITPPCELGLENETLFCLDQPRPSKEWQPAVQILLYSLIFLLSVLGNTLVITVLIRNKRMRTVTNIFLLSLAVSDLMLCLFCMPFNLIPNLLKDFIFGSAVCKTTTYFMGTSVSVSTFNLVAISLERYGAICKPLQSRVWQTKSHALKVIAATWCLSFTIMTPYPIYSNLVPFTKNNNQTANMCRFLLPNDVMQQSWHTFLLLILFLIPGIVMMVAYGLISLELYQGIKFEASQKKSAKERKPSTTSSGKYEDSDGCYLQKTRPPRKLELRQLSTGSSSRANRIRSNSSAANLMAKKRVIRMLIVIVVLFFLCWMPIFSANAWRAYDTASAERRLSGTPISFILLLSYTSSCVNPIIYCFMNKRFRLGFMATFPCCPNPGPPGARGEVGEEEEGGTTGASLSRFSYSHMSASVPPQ

[13] = target: Sodium-dependent serotonin transporter (Homo sapiens, UniProt P31645)
Sequence of Sodium-dependent serotonin transporter (P31645 whole entry): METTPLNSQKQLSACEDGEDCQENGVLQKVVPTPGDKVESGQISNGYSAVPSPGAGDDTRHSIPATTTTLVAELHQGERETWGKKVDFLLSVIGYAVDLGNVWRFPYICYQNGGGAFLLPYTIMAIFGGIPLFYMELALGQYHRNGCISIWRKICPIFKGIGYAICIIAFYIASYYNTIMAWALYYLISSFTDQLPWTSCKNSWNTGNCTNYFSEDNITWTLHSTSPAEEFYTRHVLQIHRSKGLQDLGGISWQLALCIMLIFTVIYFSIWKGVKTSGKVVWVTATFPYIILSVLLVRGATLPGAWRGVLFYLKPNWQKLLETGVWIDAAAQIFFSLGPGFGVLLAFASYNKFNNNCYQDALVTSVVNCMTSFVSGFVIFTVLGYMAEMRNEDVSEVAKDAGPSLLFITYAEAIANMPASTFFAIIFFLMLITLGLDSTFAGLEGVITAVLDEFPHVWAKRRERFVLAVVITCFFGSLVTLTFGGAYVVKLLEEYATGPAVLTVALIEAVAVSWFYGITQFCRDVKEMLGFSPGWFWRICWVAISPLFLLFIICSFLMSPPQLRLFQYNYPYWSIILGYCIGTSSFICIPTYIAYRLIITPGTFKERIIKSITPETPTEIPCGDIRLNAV

[14] = target: 3',5'-cyclic-AMP phosphodiesterase 4D (Homo sapiens, UniProt Q08499); format: functional
Sequence of 3',5'-cyclic-AMP phosphodiesterase 4D (Q08499 whole entry): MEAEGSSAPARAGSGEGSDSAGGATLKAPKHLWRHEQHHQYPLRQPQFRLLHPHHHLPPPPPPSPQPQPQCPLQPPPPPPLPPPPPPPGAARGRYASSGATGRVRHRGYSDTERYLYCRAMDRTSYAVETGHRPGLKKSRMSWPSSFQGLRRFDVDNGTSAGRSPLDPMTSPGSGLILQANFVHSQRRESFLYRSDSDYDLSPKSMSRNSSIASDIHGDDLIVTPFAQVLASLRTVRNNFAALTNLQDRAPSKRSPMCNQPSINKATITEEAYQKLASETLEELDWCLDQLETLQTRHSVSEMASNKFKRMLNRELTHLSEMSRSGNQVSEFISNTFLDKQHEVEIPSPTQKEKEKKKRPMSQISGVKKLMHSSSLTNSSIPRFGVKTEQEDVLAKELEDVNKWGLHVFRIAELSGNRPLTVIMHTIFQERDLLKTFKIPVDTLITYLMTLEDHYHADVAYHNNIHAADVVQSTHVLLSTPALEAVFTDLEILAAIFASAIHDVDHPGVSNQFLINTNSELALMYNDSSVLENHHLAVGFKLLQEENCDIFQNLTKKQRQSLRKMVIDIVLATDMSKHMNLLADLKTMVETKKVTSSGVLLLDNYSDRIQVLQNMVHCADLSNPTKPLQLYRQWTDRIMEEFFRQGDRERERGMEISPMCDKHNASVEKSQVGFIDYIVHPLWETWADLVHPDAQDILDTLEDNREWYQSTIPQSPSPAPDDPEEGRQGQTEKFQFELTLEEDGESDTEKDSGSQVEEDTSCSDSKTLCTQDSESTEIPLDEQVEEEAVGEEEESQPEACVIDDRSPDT

[15] = target: Growth hormone secretagogue receptor type 1 (Homo sapiens, UniProt Q92847)
Sequence of Growth hormone secretagogue receptor type 1 (Q92847 whole entry): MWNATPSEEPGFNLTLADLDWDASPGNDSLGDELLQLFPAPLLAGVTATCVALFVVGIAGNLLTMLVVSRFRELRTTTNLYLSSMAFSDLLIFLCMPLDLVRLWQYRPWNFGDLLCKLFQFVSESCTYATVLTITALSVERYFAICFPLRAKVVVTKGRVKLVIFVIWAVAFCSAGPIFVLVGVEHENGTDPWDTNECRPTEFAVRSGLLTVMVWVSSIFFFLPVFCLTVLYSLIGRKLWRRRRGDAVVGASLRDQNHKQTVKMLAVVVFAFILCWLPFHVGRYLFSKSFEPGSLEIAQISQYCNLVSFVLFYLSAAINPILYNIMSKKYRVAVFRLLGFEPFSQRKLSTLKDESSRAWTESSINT
Also: assay procedure not described here.

`CCCN(CC)C(CC)C(=O)Nc1c(C)cccc1C` (stereo not given) [ETIDOCAINE] showed an AC50 [1] greater than 30 µM, an AC50 [2] greater than 30 µM and an AC50 [3] greater than 30 µM. The AC50 [4] was greater than 30 µM, the AC50 [5] was greater than 30 µM and the AC50 [6] was greater than 30 µM. For the same compound, the AC50 [7] was greater than 30 µM, the AC50 [8] was greater than 30 µM and the AC50 [9] was greater than 30 µM. The AC50 [10] was greater than 30 µM, the AC50 [11] was greater than 30 µM and the AC50 [12] was greater than 30 µM. The AC50 [13] was greater than 30 µM, the AC50 [14] was greater than 30 µM and the AC50 [15] was greater than 30 µM.

Work on `O=C(O)c1ccccc1Nc1cccc(C(F)(F)F)c1` [FLUFENAMIC ACID] yielded an AC50 [1] greater than 30 µM, an AC50 [2] greater than 30 µM and an AC50 [3] greater than 30 µM. The AC50 [4] was greater than 10 µM, the AC50 [5] was 3.5 µM and the AC50 [6] was greater than 10 µM. It also gave an AC50 [7] greater than 30 µM, an AC50 [8] of 26.3 µM and an AC50 [9] greater than 30 µM. It also gave an AC50 [10] greater than 30 µM, an AC50 [11] greater than 30 µM and an AC50 [12] greater than 30 µM. It also gave an AC50 [13] greater than 30 µM, an AC50 [14] greater than 30 µM and an AC50 [15] greater than 30 µM.

For `O=C(O)c1ccccc1OP(=O)(O)O` [FOSFOSAL], the AC50 [1] was greater than 30 µM, the AC50 [2] was 9.8 µM and the AC50 [3] was greater than 30 µM. For the same compound, the AC50 [4] was greater than 30 µM, the AC50 [5] was greater than 30 µM and the AC50 [6] was greater than 30 µM. The AC50 [7] was greater than 30 µM, the AC50 [8] was greater than 30 µM and the AC50 [9] was greater than 30 µM. It also gave an AC50 [10] greater than 30 µM, an AC50 [11] greater than 30 µM and an AC50 [12] greater than 30 µM. The AC50 [13] was greater than 30 µM, the AC50 [14] was greater than 30 µM and the AC50 [15] was greater than 30 µM.

`C#C[C@]1(O)CC[C@H]2[C@@H]3CCC4=CC(=O)CCC4=C3C=C[C@@]21CC` [GESTRINONE] gave an AC50 [1] greater than 30 µM, an AC50 [2] of 2.9 µM and an AC50 [3] greater than 30 µM. For the same compound, the AC50 [4] was greater than 30 µM, the AC50 [5] was greater than 30 µM and the AC50 [6] was greater than 30 µM. For the same compound, the AC50 [7] was greater than 30 µM, the AC50 [8] was 22 µM and the AC50 [9] was greater than 30 µM. The AC50 [10] was greater than 30 µM, the AC50 [11] was greater than 30 µM and the AC50 [12] was greater than 30 µM. The AC50 [13] was 0.033 µM, the AC50 [14] was 4.1 µM and the AC50 [15] was greater than 30 µM.

Compound `CCCCCCOC(=O)CCC(=O)CN` [HEXAMINOLEVULINATE] has an AC50 [1] greater than 30 µM, an AC50 [2] greater than 30 µM and an AC50 [3] greater than 30 µM. It also gave an AC50 [4] greater than 30 µM, an AC50 [5] greater than 30 µM and an AC50 [6] greater than 30 µM. The AC50 [7] was greater than 30 µM, the AC50 [8] was greater than 30 µM and the AC50 [9] was greater than 30 µM. It also gave an AC50 [10] greater than 30 µM, an AC50 [11] greater than 30 µM and an AC50 [12] greater than 30 µM. For the same compound, the AC50 [13] was greater than 30 µM, the AC50 [14] was greater than 30 µM and the AC50 [15] was greater than 30 µM.

Compound `Cc1ccc(NC(=O)C2(c3ccc4c(c3)OC(F)(F)O4)CC2)nc1-c1cccc(C(=O)O)c1` [LUMACAFTOR] has an AC50 [1] greater than 30 µM, an AC50 [2] greater than 30 µM and an AC50 [3] greater than 30 µM. For the same compound, the AC50 [4] was greater than 30 µM, the AC50 [5] was greater than 30 µM and the AC50 [6] was greater than 30 µM. It also gave an AC50 [7] greater than 30 µM, an AC50 [8] of 15 µM and an AC50 [9] greater than 30 µM. It also gave an AC50 [10] greater than 30 µM, an AC50 [11] greater than 30 µM and an AC50 [12] greater than 30 µM. The AC50 [13] was greater than 30 µM, the AC50 [14] was 15 µM and the AC50 [15] was greater than 30 µM.

`CC(C)OC(=O)C(C(=O)OC(C)C)=C1SC=CS1` [MALOTILATE] gave an AC50 [1] greater than 30 µM, an AC50 [2] greater than 30 µM and an AC50 [3] greater than 30 µM. It also gave an AC50 [4] greater than 30 µM, an AC50 [5] greater than 30 µM and an AC50 [6] greater than 30 µM. For the same compound, the AC50 [7] was greater than 30 µM, the AC50 [8] was greater than 30 µM and the AC50 [9] was greater than 30 µM. The AC50 [10] was greater than 30 µM, the AC50 [11] was greater than 30 µM and the AC50 [12] was greater than 30 µM. The AC50 [13] was greater than 30 µM, the AC50 [14] was 4.2 µM and the AC50 [15] was greater than 30 µM.
